The source of these data is patent US4178456A, “Prostenoic acids and esters” (American Cyanamid Company, priority 1977, dated 1979).

Experiment [1] relates to mean arterial blood pressure. Description: Hypotensive Activity in anesthetized rats. The format is in vivo, Male Wistar strain rats. To be noted: dose 2.1 mg/kg, intravenous (jugular) infusion over one minute, 4 animals, urethane anesthesia. The procedure:
This procedure is a modification of the technique described by Pike, et al., Prostaglandins, Nobel Symposium 2, Stockholm, June, 1966, pg. 165.
Male Wistar strain rats (Royal Hart Farms) averaging approximately 250 g in weight are fastened to rat boards in a supine position by means of canvas vests and limb ties. The animals are anesthetized with a 900 mg/kg intraperitoneal dose of urethane. The left carotid artery is cannulated with polyethylene 50 tubing to measure arterial blood pressure and the left external jugular vein is cannulated with polyethylene 50 tubing for drug infusion. The animals are allowed to equilibrate for 15-30 minutes. The test compound is infused in 0.5 ml of saline, over a one minute period, at the indicated dose level, using a Harvard model 940 infusion pump and a 6 cc syringe at speed 5. Each drug dose is flushed with 0.4 ml of saline. The mean arterial blood pressure is measured before and after drug administration using a Statham model P23Db pressure transducer and a Brush model 260 recorder. The percent depression in mean arterial blood pressure and the duration of at least a 10% depression induced by representative compounds of this invention are recorded in Table C.

The subject of experiment [2] is adenosine diphosphate induced platelet aggregation. Kind of experiment: Inhibition of Platelet Aggregation-In Vitro, adenosine diphosphate induced. The format is cell-based, human. More on the design: key: (-): Inhibition; (+): No Inhibition. From the text:
(§1) It is well known that platelet aggregation inhibitors may be useful as anti-thrombotic drugs. Inhibition of platelet aggregation can be conveniently measured in vitro by monitoring changes in optical density and/or light transmission in platelet rich plasma upon addition of suitable aggregating agents such as adenosine diphosphate, epinephrine, thrombin or collagen. Alternatively, platelet aggregation can be measured in vitro using platelet rich plasma obtained at various time intervales from animals given inhibitors by an oral or parenteral route.
(§2) Human […] is incubated with modified Tyrode's solution in a proportion of 40-50% human […]. The test compounds are added at varying concentrations and after 5 minutes incubation, an aggregating agent such as adenosine diphosphate or collagen is added. The change in optical density (light transmission) is monitored by eye and inhibition is recorded as a (-) or lack of inhibition is recorded as a (+). Test compounds are considered active if they inhibit adenosine diphosphate or collagen induced aggregation at a concentration of 25 mcg/ml or less within 5-10 minutes.

Experiment [3] relates to collagen induced platelet aggregation. Description: Inhibition of Platelet Aggregation-In Vitro, collagen induced. The experiment is classed as cell-based, human. More on the design: key: (-): Inhibition; (+): No Inhibition.
Description: as §1, §2

In experiment [4] the test system is bronchospasms elicited by acetylcholine. Kind of experiment: Bronchodilator Activity (Konzett procedure), acetylcholine. The experiment is classed as in vivo, guinea pigs. Conditions: Cavia porcellus; three logarithmic cumulative intravenous doses. The procedure:
(§3) Bronchodilator activity is determined in guinea pigs against bronchospasms elicited by intravenous injections of 5-hydroxytryptamine, histamine or acetylcholine by the Konzett procedure. [See J. Lulling, P. Lievens, F. El Sayed and J. Prignot, Arzeneimittel-Forschung, 18, 995 (1968).] In Table D, bronchodilator activity for representative compounds of this invention against one or more of the three spasmogenic agents is expressed as an ED50 determined from the results obtained with three logarithmic cumulative intravenous doses.

Experiment [5] concerns bronchospasms elicited by histamine. Kind of experiment: Bronchodilator Activity (Konzett procedure), histamine. The experiment is classed as in vivo, guinea pigs. To be noted: Cavia porcellus; three logarithmic cumulative intravenous doses. The procedure:
as §3

Experiment [6] concerns bronchospasms elicited by 5-hydroxytryptamine. Kind of experiment: Bronchodilator Activity (Konzett procedure), 5-hydroxytryptamine. Conditions: Cavia porcellus; three logarithmic cumulative intravenous doses. The experiment is classed as in vivo, guinea pigs. The procedure:
as §3

In the case of `O=C(O)CCCC=CCC1C(O)CC(=O)C1C=CC1(O)CCCCC1` (stereo not drawn) [nat(and ent)-9α,15-Dihydroxy-11-oxo-15,16-tetramethylene-17,18,19,20-tetranor-5-cis-13-trans-prostadienoic Acid], the “Duration in Minutes of at Least 10% Depression” value in experiment [1] is greater than 20 min. The “Percent Depression of Mean Arterial Blood Pressure” value in experiment [1] is recorded as -29%. The “Inhibition of Platelet Aggregation, Adenosine Diphosphate” value in experiment [2] (drug concentration 25 ug/ml) and in experiment [2] (drug concentration 250 ug/ml) was “(-)” throughout. For the same compound, the “Inhibition of Platelet Aggregation, Collagen” value is “(+)” in experiment [3] (drug concentration 0.25 ug/ml), “(-)” in experiment [3] (drug concentration 2.5 ug/ml), “(-)” in experiment [3] (drug concentration 25 ug/ml) and “(-)” in experiment [3] (drug concentration 250 ug/ml). For the same compound, the values for the median effective dose (ED50) in experiment [4], in experiment [5] and in experiment [6] were greater than 3.2 µg/kg, greater than 3.2 µg/kg and 0.253 µg/kg, respectively.
As for `O=C(O)CCC/C=C\C[C@@H]1[C@@H](/C=C/C2(O)CCCCC2)[C@H](O)C[C@@H]1O` (relative stereo) [nat(and ent)-9α,11α,15-Trihydroxy-15,16-tetramethylene-17,18,19,20-tetranor-13-trans-5-cis-prostadienoic Acid], the “Inhibition of Platelet Aggregation, Adenosine Diphosphate” value is “(+)” in experiment [2] (drug concentration 0.25 ug/ml), “(+)” in experiment [2] (drug concentration 2.5 ug/ml), “(+)” in experiment [2] (drug concentration 25 ug/ml) and “(-)” in experiment [2] (drug concentration 250 ug/ml). The “Inhibition of Platelet Aggregation, Collagen” value in experiment [3] (drug concentration 0.25 ug/ml) was “(+)”; in experiment [3] (drug concentration 2.5 ug/ml) it was “(+)”; in experiment [3] (drug concentration 25 ug/ml), “(-)”; in experiment [3] (drug concentration 250 ug/ml), “(-)”.
